Source: PubChem BioAssay (NCI)
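Grown in 96-well plates, cells were treated for 48 hours with each compound at five concentrations. Insufficient inhibition: endpoint recorded as highest concentration tested. Here, GI50 denotes the concentration required for 50% inhibition of growth. The concentration for full growth arrest is given as TGI.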

What was measured:
Test in all cases: NCI tumour cell line growth inhibition, 48 h
SK-MEL-28 melanoma = test system: SK-MEL-28 melanoma
MDA-MB-231 breast = test system: MDA-MB-231 breast
SF-539 CNS = test system: SF-539 CNS
A498 renal = test system: A498 renal
IGROV1 ovarian = test system: IGROV1 ovarian
NCI-H23 lung = test system: NCI-H23 lung
NCI-H522 lung = test system: NCI-H522 lung
NCI/ADR-RES ovarian = test system: NCI/ADR-RES ovarian
RPMI-8226 leukemia = test system: RPMI-8226 leukemia
EKVX NSCLC = test system: EKVX NSCLC
NCI-H226 lung = test system: NCI-H226 lung
OVCAR-3 ovarian = test system: OVCAR-3 ovarian
HCT-116 colon = test system: HCT-116 colon
SR leukemia = test system: SR leukemia
M14 melanoma = test system: M14 melanoma
U251 CNS = test system: U251 CNS
SNB-75 CNS = test system: SNB-75 CNS
A549 NSCLC = test system: A549 NSCLC
SK-MEL-2 melanoma = test system: SK-MEL-2 melanoma
MCF7 breast = test system: MCF7 breast
HOP-62 NSCLC = test system: HOP-62 NSCLC
KM12 colon = test system: KM12 colon
OVCAR-5 ovarian = test system: OVCAR-5 ovarian
K-562 leukemia = test system: K-562 leukemia
UO-31 renal = test system: UO-31 renal
LOX IMVI melanoma = test system: LOX IMVI melanoma
SF-295 CNS = test system: SF-295 CNS
MDA-MB-435 = test system: MDA-MB-435
SN12C renal = test system: SN12C renal
SW-620 colon = test system: SW-620 colon
UACC-257 melanoma = test system: UACC-257 melanoma
SK-MEL-5 melanoma = test system: SK-MEL-5 melanoma
HT29 colon = test system: HT29 colon
HS 578T breast = test system: HS 578T breast
OVCAR-8 ovarian = test system: OVCAR-8 ovarian
SNB-19 CNS = test system: SNB-19 CNS
CAKI-1 renal = test system: CAKI-1 renal
HOP-92 NSCLC = test system: HOP-92 NSCLC
COLO 205 colon = test system: COLO 205 colon
PC-3 prostate = test system: PC-3 prostate
HCC-2998 colon = test system: HCC-2998 colon
SF-268 CNS = test system: SF-268 CNS
NCI-H460 lung = test system: NCI-H460 lung
MOLT-4 leukemia = test system: MOLT-4 leukemia
TK-10 renal = test system: TK-10 renal
ACHN renal = test system: ACHN renal
RXF 393 renal = test system: RXF 393 renal
T-47D breast = test system: T-47D breast
MALME-3M melanoma = test system: MALME-3M melanoma
786-0 renal = test system: 786-0 renal
UACC-62 melanoma = test system: UACC-62 melanoma
SK-OV-3 ovarian = test system: SK-OV-3 ovarian
HL-60(TB) leukemia = test system: HL-60(TB) leukemia
MDA-MB-468 breast = test system: MDA-MB-468 breast
BT-549 breast = test system: BT-549 breast
CCRF-CEM leukemia = test system: CCRF-CEM leukemia
OVCAR-4 ovarian = test system: OVCAR-4 ovarian
HCT-15 colon = test system: HCT-15 colon
DU-145 prostate = test system: DU-145 prostate

Compound: C/C(=N\N=C\c1ccc(Cl)c([N+](=O)[O-])c1)c1ccc2c(c1)Nc1ccccc1S2
- GI50 (SK-MEL-28 melanoma): 17.8 µM
- TGI (SK-MEL-28 melanoma): > 100 µM
- GI50 (MDA-MB-231 breast): 14.3 µM
- TGI (MDA-MB-231 breast): > 100 µM
- GI50 (SF-539 CNS): 18.5 µM
- TGI (SF-539 CNS): 74.5 µM
- GI50 (A498 renal): 31 µM
- TGI (A498 renal): > 100 µM
- GI50 (IGROV1 ovarian): 17.7 µM
- TGI (IGROV1 ovarian): > 100 µM
- GI50 (NCI-H23 lung): 6.83 µM
- TGI (NCI-H23 lung): 39.3 µM
- GI50 (NCI-H522 lung): 11.6 µM
- TGI (NCI-H522 lung): > 100 µM
- GI50 (NCI/ADR-RES ovarian): 5.22 µM
- TGI (NCI/ADR-RES ovarian): 53.1 µM
- GI50 (RPMI-8226 leukemia): 4.27 µM
- TGI (RPMI-8226 leukemia): > 100 µM
- GI50 (EKVX NSCLC): 5.85 µM
- TGI (EKVX NSCLC): > 100 µM
- GI50 (NCI-H226 lung): 8.48 µM
- TGI (NCI-H226 lung): 41.9 µM
- GI50 (OVCAR-3 ovarian): 4.46 µM
- TGI (OVCAR-3 ovarian): 22.5 µM
- GI50 (HCT-116 colon): 4.44 µM
- TGI (HCT-116 colon): > 100 µM
- GI50 (SR leukemia): 3.49 µM
- TGI (SR leukemia): > 100 µM
- GI50 (M14 melanoma): 72.4 µM
- TGI (M14 melanoma): > 100 µM
- GI50 (U251 CNS): 7.43 µM
- TGI (U251 CNS): 52.4 µM
- GI50 (SNB-75 CNS): 15.7 µM
- TGI (SNB-75 CNS): 93.5 µM
- GI50 (A549 NSCLC): 12.2 µM
- TGI (A549 NSCLC): > 100 µM
- GI50 (SK-MEL-2 melanoma): 43.2 µM
- TGI (SK-MEL-2 melanoma): > 100 µM
- GI50 (MCF7 breast): 3.19 µM
- TGI (MCF7 breast): 30 µM
- GI50 (HOP-62 NSCLC): 8.03 µM
- TGI (HOP-62 NSCLC): 41.3 µM
- GI50 (KM12 colon): 9.7 µM
- TGI (KM12 colon): > 100 µM
- GI50 (OVCAR-5 ovarian): > 100 µM
- TGI (OVCAR-5 ovarian): > 100 µM
- GI50 (K-562 leukemia): 5.37 µM
- TGI (K-562 leukemia): > 100 µM
- GI50 (UO-31 renal): 78.2 µM
- TGI (UO-31 renal): > 100 µM
- GI50 (LOX IMVI melanoma): 24.8 µM
- TGI (LOX IMVI melanoma): > 100 µM
- GI50 (SF-295 CNS): 7.73 µM
- TGI (SF-295 CNS): 65.3 µM
- GI50 (MDA-MB-435): 14.4 µM
- TGI (MDA-MB-435): > 100 µM
- GI50 (SN12C renal): 44.3 µM
- TGI (SN12C renal): > 100 µM
- GI50 (SW-620 colon): 3.56 µM
- TGI (SW-620 colon): > 100 µM
- GI50 (UACC-257 melanoma): 9.51 µM
- TGI (UACC-257 melanoma): > 100 µM
- GI50 (SK-MEL-5 melanoma): 7.91 µM
- TGI (SK-MEL-5 melanoma): > 100 µM
- GI50 (HT29 colon): 4.26 µM
- TGI (HT29 colon): > 100 µM
- GI50 (HS 578T breast): 7.56 µM
- TGI (HS 578T breast): 62.3 µM
- GI50 (OVCAR-8 ovarian): 6.09 µM
- TGI (OVCAR-8 ovarian): > 100 µM
- GI50 (SNB-19 CNS): 15.8 µM
- TGI (SNB-19 CNS): 53.6 µM
- GI50 (CAKI-1 renal): 13.7 µM
- TGI (CAKI-1 renal): > 100 µM
- GI50 (HOP-92 NSCLC): 12.2 µM
- TGI (HOP-92 NSCLC): 61 µM
- GI50 (COLO 205 colon): 36.1 µM
- TGI (COLO 205 colon): > 100 µM
- GI50 (PC-3 prostate): 3 µM
- TGI (PC-3 prostate): 23.3 µM
- GI50 (HCC-2998 colon): 5.08 µM
- TGI (HCC-2998 colon): 19.4 µM
- GI50 (SF-268 CNS): 23.8 µM
- TGI (SF-268 CNS): > 100 µM
- GI50 (NCI-H460 lung): 3.38 µM
- TGI (NCI-H460 lung): 20 µM
- GI50 (MOLT-4 leukemia): 9.98 µM
- TGI (MOLT-4 leukemia): > 100 µM
- GI50 (TK-10 renal): 18 µM
- TGI (TK-10 renal): 94.4 µM
- GI50 (ACHN renal): 14.4 µM
- TGI (ACHN renal): > 100 µM
- GI50 (RXF 393 renal): 15.3 µM
- TGI (RXF 393 renal): 59 µM
- GI50 (T-47D breast): 6.56 µM
- TGI (T-47D breast): > 100 µM
- GI50 (MALME-3M melanoma): 10.9 µM
- TGI (MALME-3M melanoma): 41.1 µM
- GI50 (786-0 renal): 26.5 µM
- TGI (786-0 renal): > 100 µM
- GI50 (UACC-62 melanoma): 15.1 µM
- TGI (UACC-62 melanoma): > 100 µM
- GI50 (SK-OV-3 ovarian): 37 µM
- TGI (SK-OV-3 ovarian): > 100 µM
- GI50 (HL-60(TB) leukemia): 16.9 µM
- TGI (HL-60(TB) leukemia): > 100 µM
- GI50 (MDA-MB-468 breast): 1.58 µM
- TGI (MDA-MB-468 breast): 5.66 µM
- GI50 (BT-549 breast): 17.1 µM
- TGI (BT-549 breast): 91.8 µM
- GI50 (CCRF-CEM leukemia): 4.12 µM
- TGI (CCRF-CEM leukemia): > 100 µM
- GI50 (OVCAR-4 ovarian): 4.03 µM
- TGI (OVCAR-4 ovarian): > 100 µM
- GI50 (HCT-15 colon): 9.1 µM
- TGI (HCT-15 colon): > 100 µM
- GI50 (DU-145 prostate): 3.76 µM
- TGI (DU-145 prostate): > 100 µM
